Assay results from patent US11135223B2, “Compositions and methods for inhibiting Dkk-1” (YALE UNIVERSITY, priority 2016, dated 2021).

Test system: leukocyte-platelet aggregate (CD45+CD41+ population)
Assay: Leukocyte-platelet aggregate (LPA) formation and PSGL-1 expression in peripheral blood, L. major infection
Type: in vivo, mice
From the text: FIG. 12, comprising FIG. 12A through FIG. 12G, depicts results of experiments showing regulation of LPA formation by Dkk-1. FIG. 12A depicts AMNIS analysis of peripheral blood from 6-week old C57BL/6 male mice. FIG. 12B depicts flow cytometry analysis of the basal LPA population (CD45^+CD41^+) Dkk-1^d/d mice and their wildtype littermate controls. B-cell and CD4 T cell among CD45^+CD41^+ cells were monitored at the indicated time points in Dkk-1^d/d mice and their wildtype littermate controls challenged with 30 μg HDM extract/mouse. FIG. 12C depicts flow cytometry analysis of LPA formation in total CD45^+ cells, CD4 T cells, and neutrophils, in mice injected with Dkk-1 inhibitor (n=5) or DMSO vehicle (n=5) 24 hours prior to infection with L. major. FIG. 12D depicts flow cytometry analysis of peripheral blood at given time points for LPA formation in nine-week old C57BL/6 mice (n=5) injected with 300 ng of Dkk-1. […] Mean fluorescence intensity was normalized to unchallenged C57BL/6 mice. […] Normalized MFI for ICAM-1 expression and the percentages of LFA-1 high cells were measured by flow cytometry following injection of 300 ng of Dkk-1 intraperitoneally. […]
Human platelets were isolated as described from healthy volunteers (Tang et al., 2011, J Clin Invest 121:4462-76). […] Samples were analyzed by flow cytometry within 4 to 6 hours. […]

## NCC1CCN(c2nccc(-c3ccc4ccccc4c3)n2)CC1 [WAY-262611, (1-(4-(naphthalen-2-yl)pyrimidin-2-yl)piperidin-4-yl)methanamine]
L. major infection, peripheral blood
  PSGL-1 expression on leukocytes: blocked the increase
Pretreatment 24 h prior to infection with L. major, 4 h post-infection
  elevation of LPA formation: reduced
